# In patent publication US4735959A, “Carboxylic acid amides and pharmaceutical compositions containing them” (Dr. Karl Thomae GmbH, priority 1981, dated 1988):
# Read-outs that look alike come from different tables or passages of the source.
# Assays:
# Format in all cases: in vivo
# blood-sugar = experiment: Blood-sugar lowering activity in starved female rats after oral administration; conditions: for change in vivo at 1 mg/kg / change in vivo at 5 mg/kg / change in vivo at 10 mg/kg: Rattus norvegicus, po, read-out: Blood-sugar lowering activity, percent as compared with the controls; for change in vivo at 10 mg/kg: 10 mg/kg orally (footnote *)
# Description: The blood-sugar lowering activity of the test compounds was determined in home-bred female rats with weights of from 180 to 220 grams. Twenty-four hours before starting the test the animals were starved. Before the test the compounds were suspended in 1.5% methyl cellulose and administered to the animals by means of an esophageal tube.
# Blood was taken from the retroorbital plexus vein before administration of the test compounds as well as each of 1, 2, 3, and 4 hours after administration. Fifty microliters of each sample were deproteinized with 0.5 ml of 0.33N perchloric acid and centrifuged. The glucose content was determined in the supernatant according to the Hexokinase method by means of an analysis photometer. The statistical evalulation was performed with the t-test according to Student with p=0.05.
# [1] = Acute toxicity in female and male mice after oral administration of a single dose; conditions: mouse, in vivo, observation time 14 days, read-out: Peroral Toxicity
# Description: (§1) The acute toxicity was determined in home-bred female and male mice having body weights of from 20 to 26 gm after oral administration (suspension in a 1% methyl cellulose solution) of a single dose. Observation time: 14 days.
# mice = experiment: as above; conditions: observation time 14 days
# Description: as §1
# [2] = 1 mg/kg orally, 1 hour, n.s. = not statistically significant
# [3] = 1 mg/kg orally, 2 hours, n.s. = not statistically significant
# [4] = 1 mg/kg orally, 3 hours, n.s. = not statistically significant
# [5] = 1 mg/kg orally, 4 hours, n.s. = not statistically significant
# [6] = 5 mg/kg orally, 1 hour, n.s. = not statistically significant
# [7] = 5 mg/kg orally, 2 hours, n.s. = not statistically significant
# [8] = 5 mg/kg orally, 3 hours, n.s. = not statistically significant
# [9] = 5 mg/kg orally, 4 hours, n.s. = not statistically significant
Compound,change in vivo at 1 mg/kg (blood-sugar; [2]) [%],change in vivo at 1 mg/kg (blood-sugar; [3]) [%],change in vivo at 1 mg/kg (blood-sugar; [4]) [%],change in vivo at 1 mg/kg (blood-sugar; [5]) [%],change in vivo at 5 mg/kg (blood-sugar; [6]) [%],change in vivo at 5 mg/kg (blood-sugar; [7]) [%],change in vivo at 5 mg/kg (blood-sugar; [8]) [%],change in vivo at 5 mg/kg (blood-sugar; [9]) [%],LD50 at 336 h [1] [mg/kg],animals died (mice),"Blood-sugar lowering activity, percent as compared with the controls (blood-sugar; [4])","Blood-sugar lowering activity, percent as compared with the controls (blood-sugar; [5])","Blood-sugar lowering activity, percent as compared with the controls (blood-sugar; [9])","Blood-sugar lowering activity, percent as compared with the controls (blood-sugar; [3])",change in vivo at 10 mg/kg (blood-sugar; 1 hour) [%],change in vivo at 10 mg/kg (blood-sugar; 2 hours) [%],"change in vivo at 10 mg/kg (blood-sugar; 3 hours, n.s. = not statistically significant) [%]","change in vivo at 10 mg/kg (blood-sugar; 4 hours, n.s. = not statistically significant) [%]"
"O=C(Cc1ccc(C(=O)O)cc1)NC(c1ccccc1)c1ccccc1N1CCCCC1 (racemic) [AV, (±)-4-[(2-Piperidino-benzhydryl)-aminocarbonylmethyl]-benzoic acid]",-41,-38,-26,-24,-44,-38,-41,-37,> 2000,0 out of 10,–,–,–,–,–,–,–,–
"CCCC(NC(=O)Cc1ccc(C(=O)O)cc1)c1ccccc1N1CCCCC1 (racemic) [J, (±)-4-[(1-(2-Piperidino-phenyl)-1-butyl)-aminocarbonylmethyl]-benzoic acid]",-38,-32,-34,-29,-44,-37,-42,-42,> 2000,0 out of 10,–,–,–,–,–,–,–,–
"O=C(Cc1ccc(C(=O)O)cc1)NC(c1ccc(F)cc1)c1ccccc1N1CCCCC1 (stereo not drawn) [AC, 4-[(α-(4-Fluoro-phenyl)-2-piperidino-benzyl)-aminocarbonylmethyl]-benzoic acid]",–,–,–,–,-36,-37,-36,-33,> 1000,0 out of 10,–,–,–,–,–,–,–,–
"CC/C=C(\NC(=O)Cc1ccc(C(=O)O)cc1)c1ccccc1N1CCCCC1 [A, (Z)-4-[(1-(2-Piperidino-phenyl)-1-buten-1yl)-aminocarbonylmethyl]-benzoicacid]",-43,-40,-33,-35,–,–,–,–,> 1000,0 out of 6,–,–,–,–,–,–,–,–
"CC(NC(=O)Cc1ccc(C(=O)O)cc1)c1ccccc1N1CCCCC1 (racemic) [AT, (±)-4-[(1-(2-Piperidino-phenyl)-1-ethyl)-aminocarbonylmethyl]-benzoicacid]",-34,-26,–,-11,-45,-45,-36,-32,> 2000,1 out of 10,n.s.,–,–,–,–,–,–,–
"CC(C)=C(NC(=O)Cc1ccc(C(=O)O)cc1)c1ccccc1N1CCCCC1 [D, 4-[(2-Methyl-1-(2-piperidino-phenyl)-1-propen-1-yl)-aminocarbonylmethyl]-benzoic acid]",-36,-32,-27,-25,–,–,–,–,> 500,0 out of 6,–,–,–,–,–,–,–,–
"CC/C=C(/NC(=O)Cc1ccc(C(=O)O)cc1)c1ccccc1N1CCCCC1 [C, (E)-4-[(1-(2-Piperidino-phenyl)-1-buten-1-yl)-aminocarbonylmethyl]-benzoic acid]",-43,-43,-37,-38,–,–,–,–,> 2000,0 out of 6,–,–,–,–,–,–,–,–
"Cc1ccc(C(NC(=O)Cc2ccc(C(=O)O)cc2)c2ccccc2N2CCCCC2)cc1 (stereo not drawn) [AA, 4-[(α-(4-Methyl-phenyl)-2-piperidino-benzyl)-aminocarbonylmethyl]-benzoic acid]",-15,-15,-13,–,-30,-33,-14,–,> 1000,0 out of 10,–,n.s.,n.s.,–,–,–,–,–
"O=C(Cc1ccc(C(=O)O)cc1)NC(c1ccc(Cl)cc1)c1ccccc1N1CCCCC1 (stereo not drawn) [AE, 4-[(α-(4-Chloro-phenyl)-2-piperidino-benzyl)-aminocarbonylmethyl]-benzoic acid]",-21,-20,-22,–,-30,-28,-39,-36,> 1000,0 out of 10,–,n.s.,–,–,–,–,–,–
"Cc1cccc(C(NC(=O)Cc2ccc(C(=O)O)cc2)c2ccccc2N2CCCCC2)c1 (stereo not drawn) [AB, 4-[(α-(3-Methyl-phenyl)-2-piperidino-benzyl)-aminocarbonylmethyl]-benzoic acid]",-26,-15,–,–,-43,-38,-36,-27,> 1000,0 out of 10,n.s.,n.s.,–,–,–,–,–,–
"O=C(Cc1ccc(C(=O)O)cc1)NC(c1ccccc1F)c1ccccc1N1CCCCC1 (stereo not drawn) [AD, 4-[(α-(2-Fluoro-phenyl)-2-piperidino-benzyl)-aminocarbonylmethyl]-benzoic acid]",-16,-20,-17,-14,-28,-32,-27,-28,> 1000,0 out of 10,–,–,–,–,–,–,–,–
"O=C(Cc1ccc(C(=O)O)cc1)NC(c1ccccn1)c1ccccc1N1CCCCC1 (stereo not drawn) [AG, 4-[(2-Piperidino-α-(2-pyridyl)-benzyl)-aminocarbonylmethyl]-benzoic acid]",-18,–,–,–,–,–,–,–,> 1000,0 out of 10,n.s.,n.s.,–,n.s.,-49,-50,-36,-31
